Experimental data from ChEMBL document CHEMBL5150076, “Discovery of Novel Orally Bioavailable Triazoles with Potent and Broad-Spectrum Antifungal Activity In Vitro and In Vivo” (J Med Chem, 2022).
≈ marks a conversion by molar mass, not a printed value. Calls of active or inactive are those of the source. No cut-off for these calls is given here.

Tests used:
[1] = system: Cryptococcus neoformans; assay: Antifungal activity against Cryptococcus neoformans H99 incubated for 72 hrs by microbroth dilution method; type: functional
[2] = system: Aspergillus fumigatus; assay: Antifungal activity against Aspergillus fumigatus 7544 incubated for 48 hrs by microbroth dilution method; type: functional
[3] = system: Candida parapsilosis; assay: Antifungal activity against Candida parapsilosis 22019; type: functional; conditions: Lodderomyces parapsilosis
[4] = system: Cryptococcus neoformans; assay: Antifungal activity against Cryptococcus neoformans 32605; type: functional
[5] = system: Nakaseomyces glabratus; assay: Antifungal activity against Candida glabrata 537; type: functional
[6] = system: Trichophyton rubrum; assay: Antifungal activity against Trichophyton rubrum cmccftla; type: functional
[7] = system: Nannizzia gypsea; assay: Antifungal activity against Microsporum gypseum; type: functional
[8] = system: Candida albicans; assay: Antifungal activity against Candida albicans 12#; type: functional
[9] = system: Candida albicans; assay: Antifungal activity against Candida albicans 14#; type: functional
[10] = system: Candida albicans; assay: Antifungal activity against Candida albicans 305; type: functional
[11] = system: Candida albicans; assay: Antifungal activity against Candida albicans 20#; type: functional
[12] = system: Candida albicans; assay: Antifungal activity against Candida albicans 28#; type: functional
[13] = system: Candida parapsilosis; assay: Antifungal activity against Candida parapsilosis 660; type: functional; conditions: Lodderomyces parapsilosis
[14] = system: Candida parapsilosis; assay: Antifungal activity against Candida parapsilosis 90018; type: functional; conditions: Lodderomyces parapsilosis
[15] = system: Candida parapsilosis; assay: Antifungal activity against Candida parapsilosis 700; type: functional; conditions: Lodderomyces parapsilosis
[16] = system: Candida tropicalis; assay: Antifungal activity against Candida tropicalis ATCC750; type: functional
[17] = system: Pichia kudriavzevii; assay: Antifungal activity against Candida krusei 463; type: functional
[18] = system: Pichia kudriavzevii; assay: Antifungal activity against Candida krusei 629; type: functional
[19] = system: Pichia kudriavzevii; assay: Antifungal activity against Candida krusei 397; type: functional
[20] = system: Pichia kudriavzevii; assay: Antifungal activity against Candida krusei 467; type: functional
[21] = system: Nakaseomyces glabratus; assay: Antifungal activity against Candida glabrata ATCC2001; type: functional
[22] = system: [Candida] auris; assay: Antifungal activity against Candida auris 791; type: functional; conditions: Candidozyma auris
[23] = system: [Candida] auris; assay: Antifungal activity against Candida auris BS12372; type: functional; conditions: Candidozyma auris
[24] = system: [Candida] auris; assay: Antifungal activity against Candida auris 887; type: functional; conditions: Candidozyma auris
[25] = system: [Candida] auris; assay: Antifungal activity against Candida auris D12; type: functional; conditions: Candidozyma auris
[26] = system: Candida albicans; assay: Inhibition of biofilm formation in Candida albicans SC5314; type: functional, organism-based; conditions: dose 0.002-0.5 µg/ml, DDE = dose-dependent effect
[27] = system: Candida albicans; assay: Inhibition of biofilm formation in Candida albicans SC5314 at 0.002 ug/ml relative to control; type: functional
[28] = system: Candida albicans; assay: Inhibition of biofilm formation in Candida albicans SC5314 at 0.0625 ug/ml relative to control; type: functional
[29] = Induction of drug resistance in Candida albicans SC5314 assessed as increase in MIC after 2 weeks (reference value: 0.008 microg/ml); type: functional; conditions: SC5314, 336 h
[30] = molecular target: T1, Lanosterol 14-alpha demethylase (Candida albicans (strain SC5314 / ATCC MYA-2876) (Yeast), UniProt P10613); assay: Inhibition of CYP51 in Candida albicans SC5314 assessed as lanosterol level at 0.0625 ug/ml measured after 12 hrs by GC-MS analysis (reference value: 2.18%); parameters: scale not given: the % may be the effect or the level left; conditions: dose 0.0625 µg/ml
T1 sequence (P10613 whole entry): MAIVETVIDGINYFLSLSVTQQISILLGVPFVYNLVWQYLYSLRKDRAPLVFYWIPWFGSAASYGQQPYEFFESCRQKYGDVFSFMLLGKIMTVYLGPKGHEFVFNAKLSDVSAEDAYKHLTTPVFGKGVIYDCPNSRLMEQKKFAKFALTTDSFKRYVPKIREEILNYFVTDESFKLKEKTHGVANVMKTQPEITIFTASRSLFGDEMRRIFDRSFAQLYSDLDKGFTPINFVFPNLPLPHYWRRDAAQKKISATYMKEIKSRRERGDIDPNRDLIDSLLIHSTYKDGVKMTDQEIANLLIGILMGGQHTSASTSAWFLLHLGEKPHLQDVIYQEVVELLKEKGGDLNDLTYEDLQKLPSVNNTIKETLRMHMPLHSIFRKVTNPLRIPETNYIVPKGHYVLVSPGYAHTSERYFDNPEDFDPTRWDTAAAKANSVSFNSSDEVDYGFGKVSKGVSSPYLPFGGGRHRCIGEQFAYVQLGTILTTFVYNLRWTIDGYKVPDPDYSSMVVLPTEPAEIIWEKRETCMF

[31] = molecular target: T1, Lanosterol 14-alpha demethylase; assay: Inhibition of CYP51 in Candida albicans SC5314 assessed as ergosterol level at 0.5 ug/ml measured after 12 hrs by GC-MS analysis (reference value: 72.58%); parameters: scale not given: the % may be the effect or the level left; conditions: at 0.5 µg/mL
[32] = molecular target: T1, Lanosterol 14-alpha demethylase; assay: Inhibition of CYP51 in Candida albicans SC5314 assessed as eburicol level at 0.0625 ug/ml measured after 12 hrs by GC-MS analysis (reference value: 0.00%); parameters: scale not given: the % may be the effect or the level left; conditions: dose 0.0625 µg/ml
[33] = molecular target: T1, Lanosterol 14-alpha demethylase; assay: Inhibition of CYP51 in Candida albicans SC5314 assessed as sterol level at 0.0625 ug/ml measured after 12 hrs by GC-MS analysis (reference value: 25.23%); parameters: scale not given: the % may be the effect or the level left; conditions: dose 0.0625 µg/ml
[34] = Cmax in Sprague-Dawley rat at 5 mg/kg, po by LC-MS analysis; type: ADME, organism-based; parameters: dose 5 mg/kg, route po; conditions: in vivo
[35] = Tmax in Sprague-Dawley rat at 5 mg/kg, po by LC-MS analysis; type: ADME, organism-based; conditions: in vivo
[36] = Half life in Sprague-Dawley rat at 2 mg/kg, iv by LC-MS analysis; type: ADME, organism-based; conditions: in vivo
[37] = Half life in Sprague-Dawley rat at 5 mg/kg, po by LC-MS analysis; type: ADME, organism-based; conditions: in vivo
[38] = AUC(0 to infinity) in Sprague-Dawley rat at 2 mg/kg, iv by LC-MS analysis; type: ADME, organism-based; parameters: time infinity, dose 2 mg/kg, route iv; conditions: in vivo
[39] = AUC(0 to infinity) in Sprague-Dawley rat at 5 mg/kg, po by LC-MS analysis; type: ADME, organism-based; parameters: time infinity, dose 5 mg/kg, route po; conditions: in vivo
[40] = Clearance in Sprague-Dawley rat at 2 mg/kg, iv by LC-MS analysis; conditions: in vivo
[41] = Oral bioavailability in Sprague-Dawley rat at 5 mg/kg by LC-MS analysis; type: ADME, organism-based; conditions: in vivo
[42] = system: Candida albicans; assay: Antifungal activity against Candida albicans SC5314 infected in ICR mouse assessed as delay in mortality at 0.25 to 0.5 mg/kg, po qd infected with fungus for 2 hrs prior to compound addition for 7 days and measured for 20 days; type: functional, organism-based; conditions: dose 0.25-0.5 mg/kg, time 20.0 day
[43] = system: Candida albicans; assay: Antifungal activity against Candida albicans SC5314 infected in ICR mouse assessed as median survival time at 0.25 mg/kg, po qd infected with fungus for 2 hrs prior to compound addition for 7 days and measured for 20 days; type: functional; conditions: time 20 day
[44] = system: Cryptococcus neoformans; assay: Antifungal activity against Cryptococcus neoformans H99 infected in ICR mouse assessed as median survival time at 0.5 mg/kg, po qd infected with fungus for 2 hrs prior to compound addition for 7 days and measured for 20 days; type: functional; conditions: time 20 day
[45] = system: Cryptococcus neoformans; assay: Antifungal activity against Cryptococcus neoformans H99 infected in ICR mouse assessed as median survival time at 1 mg/kg, po qd infected with fungus for 2 hrs prior to compound addition for 7 days and measured for 20 days; type: functional; conditions: time 20 day
[46] = system: Cryptococcus neoformans; assay: Antifungal activity against Cryptococcus neoformans H99 infected in ICR mouse assessed as median survival time at 2 mg/kg, po qd infected with fungus for 2 hrs prior to compound addition for 7 days and measured for 20 days; type: functional; conditions: time 20 day
[47] = system: Cryptococcus neoformans; assay: Antifungal activity against Cryptococcus neoformans H99 infected in ICR mouse assessed as median survival time at 5 mg/kg, po qd infected with fungus for 2 hrs prior to compound addition for 7 days and measured for 20 days; type: functional; conditions: time 20 day
[48] = system: Aspergillus fumigatus; assay: Antifungal activity against Aspergillus fumigatus 7544 infected in ICR mouse assessed as survival rate at 20 mg/kg, po qd infected with fungus for 2 hrs prior to compound addition for 7 days and measured for 20 days; type: functional; conditions: time 20 day
[49] = system: Aspergillus fumigatus; assay: Antifungal activity against Aspergillus fumigatus 7544 infected in ICR mouse assessed as survival rate at 60 mg/kg, po qd infected with fungus for 2 hrs prior to compound addition for 7 days and measured for 20 days; type: functional; conditions: time 20 day
[50] = system: Candida albicans; assay: Antifungal activity against Candida albicans 100 infected in ICR mouse assessed as delay in mortality at 0.25 mg/kg, po qd infected with fungus for 2 hrs prior to compound addition for 7 days and measured for 20 days; type: functional, organism-based; conditions: time 20.0 day
[51] = Cytotoxicity against HUVEC assessed as cell viability at 64 ug/ml incubated for 24 hrs by CCK-8 assay; type: toxicity, cell-based; conditions: human, HUVEC cells, dose 64 µg/ml, read-out: Activity
[52] = Induction of hemolysis in rabbit RBC at 64 ug/ml incubated for 1 hr; type: toxicity, cell-based, Oryctolagus cuniculus, Erythrocyte; conditions: red blood cells, dose 64 µg/ml, read-out: Activity

C[C@@H](c1cn(-c2ccc(Cl)cc2F)nn1)[C@](O)(Cn1cncn1)c1ccc(F)cc1F
MIC [1]: 0.0313 mg/L (≈ 0.0697 µM)
MIC [2]: 1 mg/L (≈ 2.23 µM)
MIC [3]: 0.0625 mg/L (≈ 0.139 µM)
MIC [4]: 0.0156 mg/L (≈ 0.0348 µM)
MIC [5]: 0.0625 mg/L (≈ 0.139 µM)
MIC [6]: 0.125 mg/L (≈ 0.278 µM)
MIC [7]: 1 mg/L (≈ 2.23 µM)
MIC [8]: 16 mg/L (≈ 35.6 µM)
MIC [9]: 8 mg/L (≈ 17.8 µM)
MIC [10]: 8 mg/L (≈ 17.8 µM)
MIC [11]: ≤ 0.0313 mg/L
MIC [12]: ≤ 0.0313 mg/L
MIC [13]: ≤ 0.0313 mg/L
MIC [14]: ≤ 0.0313 mg/L
MIC [15]: 0.0625 mg/L (≈ 0.139 µM)
MIC [16]: 8 mg/L (≈ 17.8 µM)
MIC [17]: 0.125 mg/L (≈ 0.278 µM)
MIC [18]: 0.25 mg/L (≈ 0.557 µM)
MIC [19]: 0.125 mg/L (≈ 0.278 µM)
MIC [20]: 0.125 mg/L (≈ 0.278 µM)
MIC [21]: 0.125 mg/L (≈ 0.278 µM)
MIC [22]: 1 mg/L (≈ 2.23 µM)
MIC [23]: 0.25 mg/L (≈ 0.557 µM)
MIC [24]: 1 mg/L (≈ 2.23 µM)
MIC [25]: 1 mg/L (≈ 2.23 µM)
inhibition [26]: Dde
inhibition at 0.002 µg/mL [27]: 20%
inhibition at 0.0625 µg/mL [28]: 75%
MIC [29]: 0.313 mg/L
Activity [30]: 6.46%
Activity [31]: 74.56%
Activity [32]: 88.96%
Activity [33]: 3.82%
Cmax [34]: 0.837 µg/mL
Tmax [35]: 2.71 h
half-life [36]: 4.5 h
half-life [37]: 1.4 h
AUC(0-inf) [38]: 8.41 µg·h/mL
AUC(0-inf) [39]: 3.86 µg·h/mL
clearance [40]: 0.119 L/h/kg
bioavailability [41]: 34%
Activity [42]: Active
Time [43]: 13.5 days
Time [44]: 10.5 days
Time [45]: 14 days
Time [46]: 8.5 days
Time [47]: 18 days
Activity [48]: 30%
Activity [49]: 100%
Activity [50]: Active
viability at 24 h, 64 ug/ml [51]: 89.1%
hemolysis at 1 h, 64 ug/ml [52]: 0.3%
